Test results taken from patent US20050079180A1, “Manipulatin of oocyte maturation and male germ cell survival” (priority 2003, published 2005).
Where a SMILES comes first, the peptide text is derived from it. Where no end group is shown, it is not given here. [ ]: non-standard residue; d: D form. d(hArg(Et2)) = CCN=C(NCC)NCCCC[C@@H](N)C(=O)O; hArg(Et2) = CCN=C(NCC)NCCCC[C@H](N)C(=O)O; dPhe(4-Cl) = N[C@H](Cc1ccc(Cl)cc1)C(=O)O; d2Nal = N[C@H](Cc1ccc2ccccc2c1)C(=O)O; d3Pal = N[C@H](Cc1cccnc1)C(=O)O

How the values were obtained:
male germ cells = experiment: Gonadotropin deprivation model: testis apoptotic DNA fragmentation; type: in vivo, rat
Protocol: (§1) Male Sprague-Dawley rats at 28 days of age were treated subcutaneously with GnRH antagonist (250 μg/kg/day) to suppress pituitary gonadotropin secretion. […] Animals were killed 5 days after initial treatment and organ weight determined. Testes were stored at −70° C. before RNA or DNA extraction or fixed in Bouin's solution for in situ labeling of DNA ends.
DNA from whole testis was isolated and quantitated with spectrophotometry at 260 nm. Aliquots of DNA (500 ng) from each sample were labeled at 3′-ends with 32P-dideoxy-ATP (3,000 Ci/mmol: Amersham. Arlington Heights, Ill.) using terminal transferase (25 U/sample; Boehringey-Mannheim, Indianapolis, Ind.) as described. Labeled samples were fractionated through 2% agarose gels. After electrophoresis, gels were dried for 2 h in a slab-gel dryer without heat and exposed to Kodak X-OMAT AR films (Eastman Kodak Co., Rochester, N.Y.) at −70 C. After autoradiography, portions of each lane corresponding to DNA less than 10 kilobases (kb) were isolated and counted in a y-spectrometer for estimating the degree of intenucleosomal DNA fragmentation. For in situ DNA 3′-end labeling, fixed testicular tissues were embedded in paraffin, and cut in 3 μm sections. To detect apoptotic DNA fragmentation, the in situ cell death detection kit (Roche Diagnostics, Mannheim, Germany) was used according to manufacturer's instruction and sections counterstained with hematoxylin.

testis = type: in vivo, rat
Protocol: C) Analysis of apoptotic DNA fragmentation in testes using 3′-end DNA labeling with the terminal transferase, followed by gel fractionation and autoradiography. D) In situ staining of apoptotic DNA fragmentation in seminiferous tubules using the TUNNEL method.
as §1

INSL3 message = experiment: Gonadotropin deprivation model: testis INSL3 mRNA (Northern blot); type: in vivo, rat; details: FIG. 4B
Protocol: as §1

cumulus-enclosed oocytes = experiment: Germinal vesicle breakdown in cultured cumulus-enclosed oocytes; type: cell-based, rat; details: for oocyte maturation (germinal vesicle breakdown): cultured cumulus-enclosed oocytes from preovulatory follicles, FIG. 1D
Protocol: (§2) Cumulus-enclosed oocytes (CEO) were collected and cultured as described (Vaknin et al. PMID: 11133687). Briefly, female rats at 26 d of age were injected with 15 IU pregnant mare serum gonadotropin (PMSG). After 48-50 h, ovaries were dissected in Leivovitz's L-15 medium (Invitrogen Corp., Carlsbad, Calif.) supplemented with 5% fetal bovine serum and 100 μg/ml of penicillin and streptomycin. The CEOs were collected by puncturing the largest ovarian follicles in the L15 medium containing 0.25 mM of MIX within 20 min, washed twice in L15 medium without MIX and transfer to test medium. The CEO were cultured with or without different doses of rat INSL3 in L15 medium without both FBS and IBMX. For controls, the CEOs were cultured in L15 medium with IBMX. At the end of culture, the occurrence of germinal vesicle breakdown (GVBD) in oocyte was examined after removing cumulus cells surrounding CEO by a small-bore pipette under Hoffman modulation contrast microscopy (Nikon Inc., Tokyo, Japan). For preovulatory follicles, follicles were excised from the ovary after PMSG treatment for 48 h. The follicles, 20-30 per vial, were cultured with or without different doses of rat INSL3 or LH in L15 medium without FBS. The vials were flushed at the start of the culture with O2/N2 (1/1) and cultured at 37C with gently shaking. After culture, individual CEO was dissected from each follicle to examine the occurrence of GVBD. For cAMP determination, 20 to 30 denuded oocytes were cultured with or without rat INSL3 (10 nM) in L15 medium containing 10 μM of cilostamide with or without 50 μM of forskolin. After treatment, oocytes were collected in 2 μl of medium, frozen and thawed to break the cells before acetylation of samples with triethylamine and acetic anhydride (3:1). Intra-oocyte cyclic AMP levels were determined by radioimmunoassay as previously described (Davoren, Hsuch, 1985).

[1] = tested on: oocytes of preovulatory follicles; experiment: In vivo oocyte maturation after intrabursal injection in PMSG-primed rats; parameters: species or system rat; details: FIG. 3C
Protocol: To study the effect of INSL3 on oocyte maturation in vivo, intrabursal injection was performed (Vaknin et al. PMID: 11133687). Immature PMSG-treated rats were lightly anesthetized by ether, and one of the ovaries was exteriorized through a small lumbosacral incision. Rat INSL3, dissolved in 100 μl of PBS, was injected through a 30-gauge needle threaded into the ovarian bursa via the adjoining fat pad. After injection, the ovary was replaced into the abdominal cavity, and skin was clipped. Eight hours later, CEOs were collected by puncturing the largest ovarian follicles to examine the occurrence of oocyte GVBD.

gubernacular cells = details: cited from earlier work
preovulatory follicles = experiment: Oocyte maturation (GVBD) in cultured intact preovulatory follicles; type: cell-based, rat
Protocol: as §2, with “Briefly,” for “Cumulus-enclosed oocytes (CEO) were collected and cultured as described (Vaknin et al. PMID: 11133687). Briefly,”, “For preovulatory follicles, follicles were excised from the ovary after PMSG treatment for 48 h. The follicles, 20-30 per vial, were cultured with or without different doses of rat INSL3 or LH in L15 medium without FBS.” left out, “(3:1).” for “(3:1). Intra-oocyte cyclic AMP levels were determined by radioimmunoassay as previously described (Davoren, Hsuch, 1985).”

recombinant LGR8 = target: T1, recombinant LGR8 (Homo sapiens, UniProt Q8WXD0); details: 293T cells expressing recombinant LGR8; cited from earlier work
T1 construct: expressed in transfected cells; host or cells: human 293T cells, calcium phosphate transfection
T1 sequence (Q8WXD0 whole entry): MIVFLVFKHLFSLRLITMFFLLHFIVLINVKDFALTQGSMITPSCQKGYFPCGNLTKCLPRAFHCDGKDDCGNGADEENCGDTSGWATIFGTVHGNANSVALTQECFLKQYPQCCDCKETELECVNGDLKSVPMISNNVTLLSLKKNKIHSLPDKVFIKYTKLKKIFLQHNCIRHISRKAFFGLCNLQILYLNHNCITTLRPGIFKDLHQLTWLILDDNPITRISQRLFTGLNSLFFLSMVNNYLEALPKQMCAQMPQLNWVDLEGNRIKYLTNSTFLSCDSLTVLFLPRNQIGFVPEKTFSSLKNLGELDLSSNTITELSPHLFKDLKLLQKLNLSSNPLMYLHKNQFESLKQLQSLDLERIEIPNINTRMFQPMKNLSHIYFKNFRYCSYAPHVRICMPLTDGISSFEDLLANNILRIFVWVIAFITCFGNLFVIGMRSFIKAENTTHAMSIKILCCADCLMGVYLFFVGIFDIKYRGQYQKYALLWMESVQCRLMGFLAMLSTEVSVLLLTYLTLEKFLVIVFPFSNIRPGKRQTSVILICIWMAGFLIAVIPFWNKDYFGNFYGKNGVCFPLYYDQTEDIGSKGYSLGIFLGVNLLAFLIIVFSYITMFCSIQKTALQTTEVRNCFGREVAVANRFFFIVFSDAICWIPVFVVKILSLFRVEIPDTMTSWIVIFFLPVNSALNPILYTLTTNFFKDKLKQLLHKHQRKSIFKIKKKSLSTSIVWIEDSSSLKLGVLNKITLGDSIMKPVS

[2] = tested on: seminiferous tubular cells; experiment: cAMP production by seminiferous tubular cells; type: cell-based, rat; details: FIG. 2D
Protocol: Seminiferous tubular cells were treated with different hormones or forskolin (FSK) for 12 h before cAMP determination. Some cells were also pretreated with PT before hormonal treatment (filled circles) to suppress Gi activity. B: basal.
Seminiferous tubular cells were isolated by the method of Nagao (1989) In Vitro Cell Dev Biol 25:1088-1098, with modifications. Briefly, testes were decapsulated and incubated for 15 minutes in PBS containing 0.25% collagenase with occasional shaking. After collecting interstitial cells released from the preparation, seminiferous tubules were washed, and incubated with 0.25% trypsin to disperse tubular cells. The resulting cell suspension was filtered through 100 μm nylon mesh to remove cell aggregates and tissue debris, after which the tubular cells were collected by centrifugation.
Total cAMP in each well was measured in triplicate with primary cultured cells by a specific radioimmunoassay as previously described by Davoren and Hsuch (1985) Biol Reprod 33:37-52. All experiments were repeated at least four times.

oocyte = experiment: Gonadotropin induction of ovulation with pertussis toxin co-treatment

CCN=C(NCC)NCCCC[C@H](NC(=O)[C@H](CC(C)C)NC(=O)[C@@H](CCCCNC(=NCC)NCC)NC(=O)[C@H](Cc1ccc(O)cc1)NC(=O)[C@H](CO)NC(=O)[C@@H](Cc1cccnc1)NC(=O)[C@@H](Cc1ccc(Cl)cc1)NC(=O)[C@@H](Cc1ccc2ccccc2c1)NC(C)=O)C(=O)N1CCC[C@H]1C(=O)N[C@H](C)C(N)=O [GnRH antagonist, ganirelix acetate] (Ac-[d2Nal][dPhe(4-Cl)][d3Pal]SY[d(hArg(Et2))]L[hArg(Et2)]P[dA]-NH2)
in situ staining of DNA fragments in seminiferous tubules (male germ cells; GnRH antagonist alone, FIG. 4D panel e): the majority of tubules showed labeled cells corresponding to meiotic pachytene spermatocytes and postmeiotic spermatids | apoptotic DNA fragmentation in testis (male germ cells; GnRH antagonist alone, internucleosomal DNA fragmentation, FIG. 4C): increased apoptotic DNA fragmentation | testis weight (testis; immature rats, GnRH antagonist alone, five days, FIG. 4A): decreased testis weight | weight change in kidney or heart (testis; rat, in vivo): no weight change in kidney or heart was detected | testis INSL3 message levels (INSL3 message): decreased INSL3 message levels

CC(C)Cn1c(=O)n(C)c(=O)c2[nH]cnc21 [MIX, reference compound]
oocyte maturation (germinal vesicle breakdown) (cumulus-enclosed oocytes): completely blocked oocyte maturation

INSL3: Insulin-like hormone superfamily member with B chain and A chain; rat INSL3 chemically synthesized; ligand of LGR8 (chain 1 QPPEARAKLCGHHLVRALVRVCGGPRWSPEA; chain 2 SVATNAVHRCCLTGCTQQDLLGLCPH; ends and bridges not checked; cysteine pairing not given here)
oocyte maturation (germinal vesicle breakdown in preovulatory follicles) ([1]; 8 h after intrabursal injection): induced oocyte maturation | follicle rupture ([1]; intrabursal treatment): not follicle rupture | cAMP production (gubernacular cells): stimulatory effects | apoptosis induced by GnRH antagonist (internucleosomal DNA fragmentation) (male germ cells; co-treatment with GnRH antagonist, FIG. 4C): blocked apoptosis | in situ staining of DNA fragments in seminiferous tubules (male germ cells; co-treatment with GnRH antagonist, FIG. 4D panel f): blocked the apoptosis-inducing action of the GnRH antagonist | oocyte maturation (preovulatory follicles; intact preovulatory follicles, FIG. 1F): induced oocyte maturation in a dose-dependent manner | cAMP production (recombinant LGR8): stimulatory effects | effect on testis weight decrease caused by GnRH antagonist (testis; co-treatment with GnRH antagonist, five days, FIG. 4A): partially blocked | basal cAMP production ([2]; INSL3 alone, 12 h): basal cAMP production was not affected | cAMP increases induced by forskolin ([2]; INSL3 with forskolin, 12 h): prevented cAMP increases induced by forskolin in a dose-dependent manner | cAMP levels stimulated by FSH ([2]; co-treatment of INSL3 with FSH): did not alter cAMP levels | oocyte maturation (germinal vesicle breakdown) (cumulus-enclosed oocytes): further augmented oocyte maturation in a dose-dependent manner | time after culture at which augmentation of oocyte maturation was evident (cumulus-enclosed oocytes; time-course, cumulus-enclosed oocytes, FIG. 1E): 2 h

pertussis toxin
follicle rupture (oocyte): without affecting follicle rupture | gonadotropin induction of oocyte maturation (oocyte): blocks the gonadotropin induction of oocyte maturation | effect on INSL3 induction of oocyte maturation (preovulatory follicles; pertussis toxin with INSL3, FIG. 1G): partially blocked the INSL3 induction of oocyte maturation | effect on LH induction of oocyte maturation (preovulatory follicles; pertussis toxin with LH, FIG. 1G): partially blocked the LH induction of oocyte maturation at lower (50 and 100 ng/ml), but not higher, doses of LH | effect on the suppressive effect of INSL3 on cAMP ([2]; pertussis toxin pretreatment): suppressive effect of INSL3 was blocked
